Assay [1] has as its system live APC (spleenocytes) from NOD (I-A^g7), BALB/c, A.SW, A.BY mice. Nature of the assay: Flow cytometry of biotinylated peptide binding to live APC (spleenocytes) of inbred mouse strains. Conditions: for percentage of high-density binding cells: biotinylated peptide 50 μM, overnight; for preferential binding to NOD APC compared with other strains (BALB/c, A.SW, A.BY): biotinylated peptide, live spleenocytes, flow cytometry. On the procedure:
Specifically, it was verified that the peptide binds to MHC molecules on live APC. Briefly, spleen cell density-gradient fractions (from mice), or PBL, or APC lines (from humans) were incubated in round bottom 96-well plates with increasing concentrations of individual biotinylated peptides at 37° C., 5% CO2 for 16 hours. Following binding of the BPI to the APC, Avidin-FITC was incubated with the cells on ice for 30 minutes, followed by biotinylated anti-Avidin for 1 hour, then again with Avidin-FITC. For BPI titrations, increasing concentrations (0.1-100 μM) of the biotinylated derivatives in sterile 0.5% BSA-PBS were incubated with the APC for 16 hours as above. […] Three-color analyses used Cy-Chrome or PE-conjugated antibodies to known surface markers of APC that were commercially available. Avidin-FITC and biotinylated anti-Avidin detection of the bound peptide was as previously described in Murray et al., 24 Eur. J. Immunol. 2337-2344 (1994); Murray; 19 Immunology Today 157-163; and Schountz et al., 157 The Journal of Immunology 3893-3901 (1996). Slight modifications of this method were used to test peptide inhibition (i.e., peptide affinity) and co-capping to the MHC and ICAM molecules directly on the live APC surface. […] Unlabeled peptide was used in a competition assay to derive the relative affinity of the BPI for the APC and the ability of the BPI to crosslink the MHC and ICAM molecules on the APC was examined by cocapping ICAM with an anti-MHC mAb. Here, cells were incubated with the BPI. Next, an anti-MHC mAb was added. After 30 minutes at 37° C., the cells were transferred to ice and stained with PE-labeled anti-ICAM (FIG. 7).
To obtain biotinylated BPI, the synthesized EGAD BPI was biotinylated with NHS-Biotin as described in Murray et al., 24 Eur. J. Immunol. 2337-2344 (1994). Spleen cell density-gradient fractions from normal (unimmunized) NOD, BALB/c and other MHC congenic strains were incubated in round bottom 96-well plates with increasing concentrations of individual biotinylated peptides at 37° C., 5% CO2 for 16 hours. Following binding of the BPI to the APC, Avidin-FITC was incubated with the cells on ice for 30 minutes, followed bybiotinylated anti-Avidin for 1 hour, then again with Avidin-FITC. For BPI titrations, increasing concentrations (0.1-100 μM) of the biotinylated derivatives in sterile 0.5% BSA-PBS were incubated with the APC for 16 hours as above. Three-color analyses used Cy-Chrome or PE-conjugated anti-B220 (mAb RA3-6B2 (CD45R B-cell marker), anti-MHC class II (KH74 or 10-3.62 mAb), or anti-ICAM-1 (3E2 mAb); (all purchased from PharMingen, San Diego, Calif.). Bound peptide was detected with avidin-FITC/biotinylated anti-avidin/avidin-FITC on live cells gated by forward/side scatter analysis. Controls contained all detecting reagents in absence of the biotinylated peptide; 20,000 events were analyzed for each histogram with a FACScan (Becton-Dickinson) flow cytometer.
To verify antigenic peptide binding to live APC, initial EGAD-BPI were screened for selective binding to NOD (I-A^g7) APC and assayed for simultaneous binding using monoclonal antibodies against either MHC-II or ICAM-1 by flow cytometry methods using live APC (Murray et al., 24 Eur. J. Immunol. 2337-2344 (1994); Murray; 19 Immunology Today 157-163; and Schountz et al., 157 The Journal of Immunology 3893-3901 (1996)). In this assay, increasing concentrations of the biotinylated-BPI, -CD11a(237-247) or -GAD65(208-217) peptide were incubated overnight with spleenocytes from each inbred strain. Bound peptide was detected with amplification of avidin-FITC fluorescence by the use of a biotinylated anti-avidin reagent, followed by a second round of avidin-FITC binding. Biotinylated peptide was incubated with 10^6 viable cells at a peptide concentrations of 50 μM. Bound peptide was detected with avidin-FITC/biotinylated anti-avidin-FITC. […]
In general terms: A flow cytometer gives signals particle by particle.

In assay [2] the test system is MHC-II and ICAM-1 molecules on the APC surface. Nature of the assay: Co-capping of ICAM-1 with MHC-II on APC from i.v. treated NOD mice (fluorescence microscopy). Conditions: T-depleted spleenocytes from NOD mice 16 hours after i.v. injection of 40 nanomoles; bio-10-3.62/streptavidin. Format: cell-based, mouse. On the procedure:
Specifically, it was verified that the peptide binds to MHC molecules on live APC. Briefly, spleen cell density-gradient fractions (from mice), or PBL, or APC lines (from humans) were incubated in round bottom 96-well plates with increasing concentrations of individual biotinylated peptides at 37° C., 5% CO2 for 16 hours. Following binding of the BPI to the APC, Avidin-FITC was incubated with the cells on ice for 30 minutes, followed by biotinylated anti-Avidin for 1 hour, then again with Avidin-FITC. For BPI titrations, increasing concentrations (0.1-100 μM) of the biotinylated derivatives in sterile 0.5% BSA-PBS were incubated with the APC for 16 hours as above. […] Three-color analyses used Cy-Chrome or PE-conjugated antibodies to known surface markers of APC that were commercially available. Avidin-FITC and biotinylated anti-Avidin detection of the bound peptide was as previously described in Murray et al., 24 Eur. J. Immunol. […]
Further support for simultaneous binding of the BPI to MHC-II and ICAM-1 molecules has been observed in co-capping experiments using biotinylated mAb 10-3.62 and streptavidin to cap MHC-II in the presence or absence of the BPI. […] The cells are plated and observed for evidence that a given BPI links ICAM-1 into the MHC-II cap, i.e., by standard fluorescence microscopy and image analysis.

“Also recorded” adds a separate entry of the source. Where no end group is shown, it is not given here. [ ]: non-standard residue; d: D form. Ahx = NCCCCCC(=O)O

Consider “GAD65(208-217)-[Ac-G-Ac-G-Ac]-CD11a (237-247) (EIAPVFVLLE[Ahx]G[Ahx]G[Ahx]ITDGEATDSG) [EGAD-BPI]”, for which the “percentage of high-density binding cells” value in assay [1] (A.BY spleenocytes) came to 6%; in assay [1] (NOD spleenocytes), 30%. Besides, the “preferential binding to NOD APC compared with other strains (BALB/c, A.SW, A.BY)” value in assay [1] is reported as “higher density”; in assay [1] (listed as GAD 65 BPI) it was “binds preferentially to NOD APC”. Besides, in assay [2], the “co-capping of ICAM-1 with MHC-II” value is “exhibited co-capping of ICAM-1 with MUC-II; also recorded: ICAM-1 was co-capped with MHC-II”.

The record behind these values is patent US7786257B2, “Signal-1/signal-2 bifunctional peptide inhibitors” (priority 2000, dated 2010).
